Paper PMC8329300, “X-ray crystallography reveals molecular recognition mechanism for sugar binding in a melibiose transporter MelB” (Communications Biology, 2021)
Values joined by “and” are separate entries in the source; they are usually repeats but may differ in a detail not shown here. Equal entries are not always repeated.

Legend:
[1] = target: T1, D59C MelBSt (Salmonella typhimurium, UniProt P30878, D59C); assay: Trp→dansyl galactoside (D2G) FRET time trace and IC50 of D2G displacement (D59C); assay type: binding
T1 construct: Cys scanning mutagenesis for the full-length MelBSt; His10 (C); made in house; host or cells: E. coli DW2
Method: Fig. 1 Functional characterizations. a [^3H] Melibiose transport time course with intact cells. […] Inset, melibiose fermentation assay. Transformants with DW2 strain were plated on MacConkey agar plates containing 30 mM melibiose as the sole carbohydrate source and pH sensor neutral red, and incubated at 37 °C for 16–18 h before imaging. Number of tests = 3, from different batch of cells or duplicate measurements from same batch of sample. b Ligand binding by Trp→dansyl galactoside (D^2G) FRET assay. Purified proteins at 1 μM concentration in 20 mM Tris-HCl, pH 7.5, 100 mM CholCl, 10% glycerol, and 0.03% UDM were subjected to steady-state fluorescence measurements as described in Methods. On the time-trace, 1.8 μL of 1 mM D^2G at 10 μM was added into 180 μL of protein solutions at 1-min point, followed by supplying 10 μL of 5 mM DDMB or 5 mM α-NPG to displace the bound D^2G. For testing Na^+ or Li^+ binding, they are added into the solution before displacement with the second sugar. The structure of DDMB or α-NPG is shown in a chair form, and the carbon positions are labeled. Glycosidic bonds are indicated by arrows. Both are α-galactosides containing a substituent at the anomeric carbon-1. The data were from duplicate measurements.
Steady-state fluorescence measurements were performed with an AMINCO-Bowman series 2 spectrometer with purified MelBSt at 1 μM in 20 mM Tris-HCl, pH 7.5, 100 mM CholCl, 10% glycerol, 0.03% UDM. Using an excitation wavelength at 290 nm, the emission intensity was recorded at 490 nm. On a time-trace, D^2G, NaCl or LiCl, then DDMB or α-NPG, were sequentially added into the protein solutions at a 1 min-interval. […] An identical volume of water was used for the control. The decrease in intensity after each addition of DDMB or α-NPG was corrected by the dilution effect and plotted as a function of the accumulated α-NPG concentrations or estimated DDMB concentrations. The 50% inhibitory concentration (IC50) was determined by fitting a hyperbolic function to the data (OriginPro 2020b). The final concentration of each detergent is estimated to be 234 μM, which is less than their CMC value for (DDMB, 295 μM).
Supplementary Figure 2. Determination of DDMB binding affinity to MelBSt. (a) Titration with DDMB or a-NPG. MelBSt in 20 mM Tris-HCl, pH 7.5, 100 mM CholCl, 10% glycerol, 0.03% UDM without (1) or with 100 mM NaCl (2) were added with D2G at 10 μM at 1-min time point as indicated by triangle symbols on the Trp®dansyl FRET time trace. Starting at the 2-min of time point, DDMB or a-NPG solution was supplemented consecutively at a 1-min interval into MelBSt solution till no change in fluorescence intensity reached as indicated in star symbols. DDM and UDM were used as negative controls. 1% DDM or UDM was titrated into the mixture, The […]
At 2-min time point, additions of galactosides were colored in pink, a-NPG in yellow, UDM in blue, DDM in light blue, water in gray traces, respectively. (b) IC50 determination. The intensity decrease at each titration were corrected by the dilution effect, and plotted as a function of the accumulated DDMB or α-NPG concentration. The 50% inhibitory concentration (IC50) was determined by fitting the data to a hyperbolic function (OriginPro 2020b). Results are presented in […]
(1 picture or pasted object on this page, not shown here)

[2] = target: T2, WT MelBSt (Salmonella typhimurium, UniProt P30878); details: cited from earlier work
T2 construct: Cys scanning mutagenesis for the full-length MelBSt; His10 (C); made in house; host or cells: E. coli DW2
T2 sequence (P30878 whole entry): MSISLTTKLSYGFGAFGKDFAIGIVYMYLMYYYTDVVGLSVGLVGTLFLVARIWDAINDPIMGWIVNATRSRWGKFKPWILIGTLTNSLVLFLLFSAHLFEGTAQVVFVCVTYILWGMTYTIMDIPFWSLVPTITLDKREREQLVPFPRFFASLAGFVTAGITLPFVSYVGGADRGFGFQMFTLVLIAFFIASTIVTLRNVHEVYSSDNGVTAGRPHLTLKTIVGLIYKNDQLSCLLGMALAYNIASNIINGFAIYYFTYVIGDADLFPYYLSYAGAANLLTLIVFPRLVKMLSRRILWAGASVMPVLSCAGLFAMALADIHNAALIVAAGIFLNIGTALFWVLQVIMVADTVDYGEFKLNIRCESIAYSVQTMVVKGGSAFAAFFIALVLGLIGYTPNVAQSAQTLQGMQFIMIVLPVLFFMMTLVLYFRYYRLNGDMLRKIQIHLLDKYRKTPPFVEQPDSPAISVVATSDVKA

T1 sequence (P30878 whole entry D59C): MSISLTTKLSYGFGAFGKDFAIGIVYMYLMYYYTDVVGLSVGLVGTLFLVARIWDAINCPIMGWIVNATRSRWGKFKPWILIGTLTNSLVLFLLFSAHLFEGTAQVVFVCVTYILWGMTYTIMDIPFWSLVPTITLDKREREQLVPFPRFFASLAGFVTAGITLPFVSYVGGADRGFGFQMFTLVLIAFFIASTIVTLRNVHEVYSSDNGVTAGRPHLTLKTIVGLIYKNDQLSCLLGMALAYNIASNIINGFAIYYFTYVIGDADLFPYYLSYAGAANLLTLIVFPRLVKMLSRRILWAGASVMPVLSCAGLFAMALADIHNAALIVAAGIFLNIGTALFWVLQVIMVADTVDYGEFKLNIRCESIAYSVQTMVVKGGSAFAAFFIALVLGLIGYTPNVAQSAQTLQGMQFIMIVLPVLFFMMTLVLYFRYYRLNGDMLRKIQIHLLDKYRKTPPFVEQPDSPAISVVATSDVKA

CN(C)c1cccc2c(S(=O)(=O)NCCS[C@@H]3O[C@H](CO)[C@H](O)[C@H](O)[C@H]3O)cccc12 [D^2G, 2′-(N-dansyl)aminoalkyl-1-thio-β-D-galactopyranoside]
Trp to D2G FRET signal, Test ([1]; D59C MelBSt mutant H+, Time 1.58333): 1.236 and 1.275
Trp to D2G FRET signal, Test ([1]; D59C MelBSt mutant H+, Time 1.6): 1.234 and 1.287
Trp to D2G FRET signal, Test ([1]; D59C MelBSt mutant H+, Time 1.61667): 1.243 and 1.289
Trp to D2G FRET signal, Test ([1]; D59C MelBSt mutant H+, Time 1.63333): 1.234 and 1.283
Trp to D2G FRET signal, Test ([1]; D59C MelBSt mutant H+, Time 1.65): 1.232 and 1.292
Trp to D2G FRET signal, Test ([1]; D59C MelBSt mutant H+, Time 1.66667): 1.262 and 1.286
Trp to D2G FRET signal, Test ([1]; D59C MelBSt mutant H+, Time 1.68333): 1.239 and 1.271
Trp to D2G FRET signal, Test ([1]; D59C MelBSt mutant H+, Time 1.7): 1.251 and 1.2854
Trp to D2G FRET signal, Test ([1]; D59C MelBSt mutant H+, Time 1.71667): 1.228 and 1.2851
Trp to D2G FRET signal, Test ([1]; D59C MelBSt mutant H+, Time 1.73333): 1.233 and 1.277
Trp to D2G FRET signal, Test ([1]; D59C MelBSt mutant H+, Time 1.75): 1.255 and 1.269
Trp to D2G FRET signal, Test ([1]; D59C MelBSt mutant H+, Time 1.76667): 1.25 and 1.265
Trp to D2G FRET signal, Test ([1]; D59C MelBSt mutant H+, Time 1.78333): 1.239 and 1.277
Trp to D2G FRET signal, Test ([1]; D59C MelBSt mutant Li+, Time 1.58333): 1.183 and 1.18 and 1.353
Trp to D2G FRET signal, Test ([1]; D59C MelBSt mutant Li+, Time 1.6): 1.194 and 1.191 and 1.312
Trp to D2G FRET signal, Test ([1]; D59C MelBSt mutant Li+, Time 1.61667): 1.182 and 1.19 and 1.349
Trp to D2G FRET signal, Test ([1]; D59C MelBSt mutant Li+, Time 1.63333): 1.194 and 1.172 and 1.325
Trp to D2G FRET signal, Test ([1]; D59C MelBSt mutant Li+, Time 1.65): 1.192 and 1.191 and 1.377
Trp to D2G FRET signal, Test ([1]; D59C MelBSt mutant Li+, Time 1.66667): 1.194 and 1.178 and 1.324
Trp to D2G FRET signal, Test ([1]; D59C MelBSt mutant Li+, Time 1.68333): 1.1972 and 1.188 and 1.334
Trp to D2G FRET signal, Test ([1]; D59C MelBSt mutant Li+, Time 1.7): 1.181 and 1.193 and 1.331
Trp to D2G FRET signal, Test ([1]; D59C MelBSt mutant Li+, Time 1.71667): 1.193 and 1.183 and 1.334
Trp to D2G FRET signal, Test ([1]; D59C MelBSt mutant Li+, Time 1.73333): 1.188 and 1.175 and 1.3208
Trp to D2G FRET signal, Test ([1]; D59C MelBSt mutant Li+, Time 1.75): 1.1972 and 1.183 and 1.3266
Trp to D2G FRET signal, Test ([1]; D59C MelBSt mutant Li+, Time 1.76667): 1.189 and 1.172 and 1.31
Trp to D2G FRET signal, Test ([1]; D59C MelBSt mutant Na+, Time 1.58333): 1.29 and 1.292 and 1.375
Trp to D2G FRET signal, Test ([1]; D59C MelBSt mutant Na+, Time 1.6): 1.287 and 1.293 and 1.38
Trp to D2G FRET signal, Test ([1]; D59C MelBSt mutant Na+, Time 1.61667): 1.293 and 1.2915 and 1.362
Trp to D2G FRET signal, Test ([1]; D59C MelBSt mutant Na+, Time 1.63333): 1.299 and 1.278 and 1.358
Trp to D2G FRET signal, Test ([1]; D59C MelBSt mutant Na+, Time 1.65): 1.272 and 1.269 and 1.372
Trp to D2G FRET signal, Test ([1]; D59C MelBSt mutant Na+, Time 1.66667): 1.295 and 1.266 and 1.37
Trp to D2G FRET signal, Test ([1]; D59C MelBSt mutant Na+, Time 1.68333): 1.287 and 1.289 and 1.378
Trp to D2G FRET signal, Test ([1]; D59C MelBSt mutant Na+, Time 1.7): 1.301 and 1.273 and 1.365
Trp to D2G FRET signal, Test ([1]; D59C MelBSt mutant Na+, Time 1.71667): 1.2912 and 1.279 and 1.361
Trp to D2G FRET signal, Test ([1]; D59C MelBSt mutant Na+, Time 1.73333): 1.293 and 1.29 and 1.3441
Trp to D2G FRET signal, Test ([1]; D59C MelBSt mutant Na+, Time 1.75): 1.291 and 1.287 and 1.358
Trp to D2G FRET signal, Test ([1]; D59C MelBSt mutant Na+, Time 1.76667): 1.307 and 1.279 and 1.387
Trp to D2G FRET signal, Test ([1]; D59C MelBSt mutant Na+, Time 1.78333): 1.304 and 1.264
Kd [2]: 10 µM
